Data: ChEMBL document CHEMBL3044955, “Inhibitory activity against tobacco mosaic virus (TMV) replication of pinoresinol and syringaresinol lignans and their glycosides from the root of Rhus javanica var. roxburghiana” (J Agric Food Chem, 2007)
≈ marks a conversion by molar mass, not a printed value.

Key:
Tobacco mosaic virus [1] = test: Inhibition of Tobacco mosaic virus (TMV) replication using Nicotiana tabacum cv. K326; assay type: functional, organism-based
Tobacco mosaic virus [2] = test: Inhibition of Tobacco mosaic virus (TMV) replication using Nicotiana tabacum cv. K326 at 0.2 mg/mL; assay type: functional

Row | EC50 (Tobacco mosaic virus [1]) | Compound | inhibition at 200 µg/mL (Tobacco mosaic virus [2])
1 | 240 µg/mL (≈ 275 µM) | COc1cc(/C=C/C(=O)OC[C@H]2O[C@@H](Oc3ccc([C@@H]4OC[C@@H]5[C@H]4CO[C@H]5c4ccc(O)c(OC)c4)cc3OC)[C@H](O)[C@@H](OC(=O)/C=C/c3ccc(O)c(OC)c3)[C@@H]2O)ccc1O [PINORESINOL-4'-O-[3',6'-O-(E)-DIFERULOYL]-BETA-D-GLUCOPYRANOSIDE] | 47.7%
2 | 190 µg/mL (≈ 218 µM) | COc1cc(/C=C/C(=O)OC[C@H]2O[C@@H](Oc3ccc([C@@H]4OC[C@@H]5[C@H]4CO[C@H]5c4ccc(O)c(OC)c4)cc3OC)[C@H](O)[C@@H](O)[C@@H]2OC(=O)/C=C/c2ccc(O)c(OC)c2)ccc1O [PINORESINOL-4'-O-[4',6'-O-(E)-DIFERULOYL]-BETA-D-GLUCOPYRANOSIDE] | 50.3%
3 |  | COc1cc(/C=C/C(=O)OC[C@H]2O[C@@H](Oc3ccc([C@@H]4OC[C@@H]5[C@H]4CO[C@H]5c4ccc(O)c(OC)c4)cc3OC)[C@H](O)[C@@H](O)[C@@H]2O)ccc1O [PINORESINOL-4'-O-[6'-O-(E)-FERULOYL]-BETA-D-GLUCOPYRANOSIDE] | 34.3%
4 | 180 µg/mL (≈ 193 µM) | COc1cc(/C=C/C(=O)OC[C@H]2O[C@@H](Oc3c(OC)cc([C@@H]4OC[C@@H]5[C@H]4CO[C@H]5c4cc(OC)c(O)c(OC)c4)cc3OC)[C@H](O)[C@@H](O)[C@@H]2OC(=O)/C=C/c2ccc(O)c(OC)c2)ccc1O [SYRINGARESINOL-4'-O-[4',6'-O-(E)-DIFERULOYL]-BETA-D-GLUCOPYRANOSIDE] | 56.1%
